Experimental data: BindingDB's records for doi:10.1016/j.ejmech.2016.11.024 (Guangxi Normal University, 2017)
pIC50: −log10 of the molar value.

What was measured:
[1] = target: T1, Proteasome subunit beta type-1 (Homo sapiens, UniProt P20618); test: Inhibition of PGPH activity of human 20S proteasome using (Z)-LLE-bNA as substrate by fluorometric method
T1 sequence (P20618 whole entry): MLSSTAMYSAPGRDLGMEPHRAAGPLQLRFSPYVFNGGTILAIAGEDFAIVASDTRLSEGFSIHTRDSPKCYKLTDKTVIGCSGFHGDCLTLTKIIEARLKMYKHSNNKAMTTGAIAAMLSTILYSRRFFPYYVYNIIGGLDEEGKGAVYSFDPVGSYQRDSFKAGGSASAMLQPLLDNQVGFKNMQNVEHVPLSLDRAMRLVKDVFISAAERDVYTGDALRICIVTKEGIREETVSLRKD

[2] = target: Proteasome subunit beta type-2 (Homo sapiens, UniProt P49721); test: Inhibition of trypsin-like activity of human 20S proteasome using Bz-VGR-AMC as substrate by fluorometric method
Chain of Proteasome subunit beta type-2 (P49721 whole entry): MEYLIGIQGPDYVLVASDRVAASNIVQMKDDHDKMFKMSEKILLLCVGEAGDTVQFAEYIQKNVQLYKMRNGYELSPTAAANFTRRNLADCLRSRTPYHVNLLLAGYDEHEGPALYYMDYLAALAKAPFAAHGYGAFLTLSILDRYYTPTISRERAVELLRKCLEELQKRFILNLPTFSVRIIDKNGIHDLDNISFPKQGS

Row | Structure (SMILES) | pIC50 [1] | pIC50 [2]
1 | CC[C@H](C)[C@H](NC(=S)Nc1cccc([N+](=O)[O-])c1)C(=O)N[C@H](Cc1ccccc1)C(=O)Nc1cccc(C(F)(F)F)c1 | 4.46 | –
2 | CC[C@H](C)[C@H](/N=C(/Nc1cccc(C(F)(F)F)c1)SC)C(=O)N[C@H](Cc1ccccc1)C(=O)Nc1cccc(C(F)(F)F)c1 | 4.65 | –
3 | CC[C@H](C)[C@H](NC(=S)Nc1ccc(C(F)(F)F)cc1)C(=O)N[C@H](Cc1ccccc1)C(=O)Nc1cccc(Br)c1 | 4.64 | < 4.30
